Counter-ions that a name gives are not always drawn.
Tests used:
Type in all cases: physicochemical
[1] = Aqueous chemical stability, 100 mM phosphate buffer, HPLC (Table 3); details: buffer phosphate (100 mM), 37° C., half-lives >360 min estimated from initial slope
Experimental: Stock solutions of the compounds in acetonitrile or acetonitrile/methanol were prepared at 20 mg/mL and 20 μL, spiked into 3 mL of buffer phosphate (100 mM) and incubated at 37° C. Aliquots (50 μL) were sampled at different time points and diluted 20 fold with ammonium formate (pH 3.5)/acetonitrile. The diluted samples were analyzed by HPLC. The peak areas corresponding to the compounds were plotted against time and the data were fitted to a first-order mono-exponential decay where the rate constant and the half-life were determined (Table 3).

[2] = Aqueous chemical stability, 50 mM phosphate buffer pH 8, HPLC-UV (Table 4); details: 50 mM buffer phosphate pH 8, 37° C., HPLC UV 211 nm
Experimental: Stock solutions of the compounds in acetonitrile or acetonitrile/MeOH were prepared at 0.05M. A 0.010 mL aliquot of the stock was spiked into 1 mL of 50 mM buffer phosphate pH 8 and incubated at 37° C. Typically, aliquots (0.010 mL) were sampled at different time points and immediately injected in the HPLC with UV detection (211 nm). The peak areas corresponding to the compounds were plotted against time and the data were fitted to a first-order mono-exponential decay where the rate constant and the half-life were determined from the slope (Table 4).

[3] = Physical stability in crystalline form by thermogravimetric analysis (TGA); details: DMF loss in less than 4 hours
Experimental: The physical stability of compounds of the present invention and DMF were measured via thermogravimetric analysis (TGA).

With COC(=O)/C=C/C(=O)OCCN(CC(=O)O)CC(=O)O [Compound 1, (E)-2,2′-((2-((4-methoxy-4-oxobut-2-enoyl)oxy)ethyl)azanediyl)diacetic acid hydrochloride] the “pH 8 (t ½, min)” value [1] was 15 min and the “pH 8 (t ½, min)” value [2] was 15 min.
For COC(=O)/C=C/C(=O)OCC[N+](C)(C)C [Compound 4, (E)-2-((4-methoxy-4-oxobut-2-enoyl)oxy)-N,N,N-trimethylethanaminium iodide], the “pH 8 (t ½, min)” value [1] was 45 min and the “pH 8 (t ½, min)” value [2] was 30 min.
In the case of COC(=O)/C=C/C(=O)OCCN1CCC(F)(F)CC1 [Compound 5, 2-(4,4-difluoropiperidin-1-yl)ethyl methyl fumarate hydrochloride], the “pH 8 (t ½, min)” value [1] is reported as 24 min and the “pH 8 (t ½, min)” value [2] is reported as 24 min.
In the case of COC(=O)/C=C/C(=O)OC(C)CN(C)C (centres unmarked) [Compound 6, 1-(dimethylamino)propan-2-yl methyl fumarate hydrochloride], the “pH 8 (t ½, min)” value [1] is reported as 2.0 min and the “pH 8 (t ½, min)” value [2] is reported as 2 min.
With COC(=O)/C=C/C(=O)OCCN1CCSCC1 [Compound 7, Methyl (2-thiomorpholinoethyl) fumarate hydrochloride] the “pH 8 (t ½, min)” value [1] was 26.0 min.
With COC(=O)/C=C/C(=O)OCCNc1ccccc1 [Compound 8, Methyl (2-(phenylamino)ethyl) fumarate hydrochloride] the “pH 8 (t ½, min)” value [1] was 36.0 min.
With COC(=O)/C=C/C(=O)OCC(C)(C)N(C)C [Compound 9, 2-(dimethylamino)-2-methylpropyl methyl fumarate hydrochloride] the “pH 8 (t ½, min)” value [1] was 7.0 min.
In the case of COC(=O)/C=C/C(=O)OCCS(C)(=O)=O [Compound 10, Methyl (2-(methylsulfonyl)ethyl) fumarate], the “pH 8 (t ½, min)” value [1] is reported as 67.0 min.
In the case of COC(=O)/C=C/C(=O)OCCN1CCS(=O)(=O)CC1 [Compound 11, 2-(1,1-dioxidothiomorpholino)ethyl methyl fumarate hydrochloride], the “pH 8 (t ½, min)” value [1] is reported as >240 min.
With COC(=O)/C=C/C(=O)OCCN1C(=O)CCC1=O [Compound 14, 2-(2,5-dioxopyrrolidin-1-yl)ethyl methyl fumarate] the “weight loss at 60° C. vs time” value [3] was “no change”.
In the case of COC(=O)/C=C/C(=O)OCCN1CCCCC1 [Compound 15, Methyl (2-(piperidin-1-yl)ethyl) fumarate hydrochloride], the “pH 8 (t ½, min)” value [1] is reported as 3.0 min.
In the case of COC(=O)/C=C/C(=O)OCCN1CCOCC1 [Compound 16, Methyl (2-morpholinoethyl) fumarate hydrochloride], the “pH 8 (t ½, min)” value [1] is reported as 20.0 min.
For COC(=O)/C=C/C(=O)OCCN1CCC2(CC1)OCCO2 [Compound 17, 2-(1,4-dioxa-8-azaspiro[4.5]decan-8-yl)ethyl methyl fumarate hydrochloride], the “pH 8 (t ½, min)” value [1] was 11.0 min.
In the case of COC(=O)/C=C/C(=O)OCCN1CCCC1 [Compound 18, Methyl (2-(pyrrolidin-1-yl)ethyl) fumarate hydrochloride], the “pH 8 (t ½, min)” value [1] is reported as 5.0 min.
For COC(=O)/C=C/C(=O)OCCN(C)C [Compound 19, 2-(dimethylamino)ethyl methyl fumarate hydrochloride], the “pH 8 (t ½, min)” value [1] was 6.0 min and the “pH 8 (t ½, min)” value [2] was 117 min.
In the case of CCN(CC)CCOC(=O)/C=C/C(=O)OC [Compound 20, 2-(diethylamino)ethyl methyl fumarate hydrochloride], the “pH 8 (t ½, min)” value [1] is reported as 5.0 min.
In the case of COC(=O)/C=C/C(=O)OCCN1C(=O)C2CC2C1=O (centres unmarked) [Compound 22, 2-(2,4-Dioxo-3-azabicyclo[3.1.0]hexan-3-yl)ethyl methyl fumarate], the “pH 8 (t ½, min)” value [2] is reported as 144 min.
In the case of COC(=O)/C=C/C(=O)OCCN1C(=O)[C@@H](C)[C@@H](C)C1=O [Compound 23, 2-((3R,4S)-3,4-Dimethyl-2,5-dioxopyrrolidin-1-yl)ethyl methyl fumarate], the “pH 8 (t ½, min)” value [2] is reported as 186 min.
In the case of COC(=O)/C=C/C(=O)OCC[N+]1([O-])CCOCC1 [Compound 26, (E)-4-(2-((4-methoxy-4-oxobut-2-enoyl)oxy)ethyl)morpholine 4-oxide], the “pH 8 (t ½, min)” value [2] is reported as 129 min.
With COC(=O)/C=C/C(=O)OCCN1C(=O)COCC1=O [Compound 27, 2-(3,5-dioxomorpholino)ethyl methyl fumarate] the “pH 8 (t ½, min)” value [2] was 37 min.
In the case of COC(=O)/C=C/C(=O)OCCN1CCOC(C)(C)C1 [Compound 28, 2-(2,2-dimethylmorpholino)ethyl methyl fumarate hydrochloride], the “pH 8 (t ½, min)” value [2] is reported as <10 min.
In the case of COC(=O)/C=C/C(=O)OCCN1CC(C)OC(C)C1 (centres unmarked) [Compound 29, 2-(2,6-dimethylmorpholino)ethyl methyl fumarate hydrochloride], the “pH 8 (t ½, min)” value [2] is reported as <10 min.
In the case of COC(=O)/C=C/C(=O)OCCN1CCOCC1=O [Compound 30, Methyl (2-(3-oxomorpholino)ethyl) fumarate], the “pH 8 (t ½, min)” value [2] is reported as 229 min.
For COC(=O)/C=C/C(=O)OCCN1CCOC(=O)C1 [Compound 31, Methyl (2-(2-oxomorpholino)ethyl) fumarate hydrochloride], the “pH 8 (t ½, min)” value [2] was 26 min.
With COC(=O)/C=C/C(=O)OCCN1CC2CCC(C1)O2 [Compound 32, 2-(8-Oxa-3-azabicyclo[3.2.1]octan-3-yl)ethyl methyl fumarate hydrochloride] the “pH 8 (t ½, min)” value [2] was 13 min.
In the case of COC(=O)/C=C/C(=O)OCCN1CCOC(CN(C)C)C1 (centres unmarked) [Compound 33, 2-(2-((Dimethylamino)methyl)morpholino)ethyl methyl fumarate hydrochloride], the “pH 8 (t ½, min)” value [2] is reported as 115 min.
With COC(=O)/C=C/C(=O)OCCN1C(=O)CC(C)(C)C1=O [Compound 37, 2-(3,3-Dimethyl-2,5-dioxopyrrolidin-1-yl)ethyl methyl fumarate] the “pH 8 (t ½, min)” value [2] was 182 min.
In the case of COC(=O)/C=C/C(=O)OCCN1CCCC1=O [Compound 38, Methyl (2-(2-oxopyrrolidin-1-yl)ethyl) fumarate], the “pH 8 (t ½, min)” value [2] is reported as 201 min.
With COC(=O)/C=C/C(=O)OCCN1CCOC1=O [Compound 39, Methyl (2-(2-oxooxazolidin-3-yl)ethyl) fumarate] the “pH 8 (t ½, min)” value [2] was 183 min.
In the case of COC(=O)/C=C/C(=O)OCCN1C(=O)NC(C)(C)C1=O [Compound 40, 2-(4,4-Dimethyl-2,5-dioxoimidazolidin-1-yl)ethyl methyl fumarate], the “pH 8 (t ½, min)” value [2] is reported as 203 min.
For CCC(=O)N(CCOC(=O)/C=C/C(=O)OC)C(=O)CC [Compound 42, Methyl (2-(N-propionylpropionamido)ethyl) fumarate], the “pH 8 (t ½, min)” value [2] was 158 min.
In the case of COC(=O)/C=C/C(=O)OCCNC(C)=O [Compound 43, 2-Acetamidoethyl methyl fumarate], the “pH 8 (t ½, min)” value [2] is reported as 177.5 min.
For COC(=O)/C=C/C(=O)OCCN(C(C)=O)C(C)=O [Compound 44, 2-(N-Acetylacetamido)ethyl methyl fumarate], the “pH 8 (t ½, min)” value [2] was 145 min.
For COC(=O)/C=C/C(=O)OCCNC(=O)OC(C)(C)C [Compound 48, 2-((tert-butoxycarbonyl)amino)ethyl methyl fumarate], the “pH 8 (t ½, min)” value [2] was 220 min.
With COC(=O)/C=C/C12COC(C)(CO1)CO2 [Compound 130, (E)-Methyl 3-(4-methyl-2,5,7-trioxabicyclo[2.2.2]octan-1-yl)acrylate] the “pH 8 (t ½, min)” value [2] was 1010 min.
For C#CCOC(=O)/C=C/C(=O)OC [Compound 131, Methyl prop-2-yn-1-yl fumarate], the “pH 8 (t ½, min)” value [2] was 96 min.
In the case of COC(=O)/C=C/C(=O)OCCCN1C(=O)CCC1=O [Compound 133, 3-(2,5-Dioxopyrrolidin-1-yl)propyl methyl fumarate], the “pH 8 (t ½, min)” value [2] is reported as 246 min.
For COC(=O)/C=C/C(=O)OC [DMF, Dimethyl fumarate, reference compound], the “weight loss at 60° C. vs time” value [3] was ~100%.
For CCN(CC)C(=O)COC(=O)/C=C/C(=O)OC [Reference Compound A, 2-(diethylamino)-2-oxoethyl methyl fumarate, reference compound], the “pH 8 (t ½, min)” value [1] was 120 min.
